Measurements from publication PMC9774241, “Associating Biological Activity and Predicted Structure of Antimicrobial Peptides from Amphibians and Insects” (Antibiotics, 2022).
Values after ≈ are worked out from the molar mass of the structure shown. Where two headings read alike, the source gives them in different places. Residues, ends and D or L forms follow the SMILES beside them. No end group written: not given here.

Assays:
Format in all cases: cell-based
[1] = test system: Escherichia coli ATCC 25922
Method: (§1) Bacteria were grown overnight at 37 °C in Mueller-Hinton Broth (MHB; Sigma-Aldrich, St. Louis. MO, USA) in a shaking incubator and aliquoted into cryovials with a 50% glycerol solution in a 1:1 ratio. No additives were added to the MHB during the growth of bacterial isolates. Glycerol stocks were stored at −80 °C.
(§2) The antimicrobial activity of the putative AMPs was determined by a broth microdilution assay as described by the Clinical and Laboratory Standards Institute, with the published adaptations for testing of cationic peptides. Escherichia coli 25922 and Staphylococcus aureus 29213 isolates were purchased from the American Type Culture Collection (ATCC; Manassas, VA, USA). A human clinical isolate of Salmonella enterica serovar Enteritidis was provided by the BC Centre for Disease Control. Bacteria from stocks stored at −80 °C were streaked onto nonselective Columbia blood agar with 5% sheep blood (Oxoid) and incubated overnight at 37 °C. Next, 2–4 colonies were streaked onto a new agar plate to ensure uniform health of colonies used in the broth microdilution assay. Isolated colonies were suspended in MHB and the optical density was measured with a spectrophotometer to create an initial inoculum concentration of approximately 1 × 10^8 cfu/mL. The inoculum was diluted 1:250 to a final concentration of 2–8 × 10^5 cfu/mL, which was confirmed by performing a Total Viability Count (TVC). The TVC consisted of plating a 1:1000 dilution of the final inoculum on nonselective media and was also used to confirm the health and purity of the inoculum in each trial.
(§3) Lyophilized 80 µg peptide aliquots synthesized by GenScript (Piscataway, NJ, USA) were resuspended to 1.28 mg/mL with UltraPure water (Thermo Fisher Scientific, Waltham, MA, USA) and serially diluted in polypropylene 96-well microtiter plates (Greiner Bio-One #650261, Kremsmünster, Austria) from 128 down to 0.5 µg/mL. Two columns per plate were reserved for growth and sterility controls. Inoculum was added to the wells containing the peptide and the growth control. Plates were incubated for 20–24 h at 37 °C. The minimum inhibitory concentration (MIC) was determined as the lowest peptide concentration where there was no visible bacterial growth.

[2] = test system: Salmonella enterica serovar Enteritidis (human clinical isolate)
Method: as §1, §2, §3

[3] = test system: Staphylococcus aureus ATCC 29213
Method: as §1, §2, §3

[4] = broth microdilution in MHB, peptide 128 down to 0.5 µg/mL, 20–24 h at 37 °C, no visible growth, range of three independent experiments

Row | Compound | MIC, E. coli ATCC 25922 [1, 4] [µg/mL] | MIC, Salmonella Enteritidis [2, 4] [µg/mL] | MIC, S. aureus ATCC 29213 [3, 4] [µg/mL] | MIC, E. coli ATCC 25922 ([1]; ATCC 25922) [µg/mL] | MIC, Salmonella Enteritidis ([2]; serovar Enteritidis (human clinical isolate)) [µg/mL] | MIC, S. aureus ATCC 29213 ([3]; ATCC 29213) [µg/mL]
1 | CC[C@H](C)[C@H](NC(=O)CN)C(=O)N[C@@H](CC(C)C)C(=O)N[C@H](C(=O)N[C@@H](CC(=O)O)C(=O)N[C@H](C(=O)N[C@@H](CC(C)C)C(=O)N[C@@H](CCCCN)C(=O)NCC(=O)N[C@@H](C)C(=O)N[C@@H](C)C(=O)N[C@@H](CCCCN)C(=O)N[C@@H](CC(N)=O)C(=O)N[C@H](C(=O)N[C@@H](C)C(=O)NCC(=O)N[C@H](C(=O)N[C@@H](CC(C)C)C(=O)N[C@@H](CC(C)C)C(=O)N[C@@H](CC(=O)O)C(=O)N[C@@H](CCCCN)C(=O)N[C@@H](CC(C)C)C(=O)N[C@@H](CCCCN)C(=O)N[C@@H](CS)C(=O)N[C@@H](CCCCN)C(=O)N[C@H](C(=O)N[C@H](C(=O)NCC(=O)NCC(=O)N[C@@H](CS)C(=O)O)[C@@H](C)O)[C@@H](C)CC)C(C)C)C(C)C)[C@@H](C)O)[C@@H](C)O [PeNi11] (H-GILTDTLKGAAKNVAGVLLDKLKCKITGGC-OH; N-terminus and C-terminus assumed) | 8 to 16 | 128 (≈ 42.6 µM) | 64 (≈ 21.3 µM) |  |  | 
2 | CC[C@H](C)[C@H](NC(=O)[C@H](CCCCN)NC(=O)[C@H](CC(=O)O)NC(=O)[C@H](CC(C)C)NC(=O)[C@@H](NC(=O)CNC(=O)[C@@H](NC(=O)[C@H](CO)NC(=O)[C@H](Cc1ccccc1)NC(=O)[C@H](CC(N)=O)NC(=O)[C@H](CCCCN)NC(=O)[C@@H](NC(=O)CNC(=O)[C@H](CCC(=O)O)NC(=O)[C@H](CCCCN)NC(=O)[C@@H](NC(=O)[C@@H](NC(=O)[C@@H](NC(=O)[C@H](Cc1c[nH]c2ccccc12)NC(=O)[C@H](CC(C)C)NC(=O)CN)[C@@H](C)O)[C@@H](C)O)[C@@H](C)CC)C(C)C)C(C)C)C(C)C)C(=O)N[C@@H](CCCNC(=N)N)C(=O)N[C@@H](CS)C(=O)N[C@@H](CCCCN)C(=O)N[C@H](C(=O)N[C@H](C(=O)NCC(=O)NCC(=O)N[C@@H](CS)C(=O)O)[C@@H](C)O)[C@@H](C)CC [PeNi14] (H-GLWTTIKEGVKNFSVGVLDKIRCKITGGC-OH; N-terminus and C-terminus assumed) | 4 to 8 | 32 (≈ 10.2 µM) | 16 to 32 |  |  | 
3 | CC[C@H](C)[C@H](NC(=O)[C@H](CO)NC(=O)[C@@H]1CCCN1C(=O)[C@H](CC(C)C)NC(=O)[C@@H](NC(=O)[C@H](CCCCN)NC(=O)[C@H](C)NC(=O)[C@H](C)NC(=O)[C@H](CC(C)C)NC(=O)CNC(=O)[C@H](C)NC(=O)[C@@H](NC(=O)[C@@H](NC(=O)[C@@H]1CCCN1C(=O)[C@H](CC(C)C)NC(=O)[C@@H](N)Cc1ccccc1)C(C)C)C(C)C)C(C)C)C(=O)N[C@H](C(=O)N[C@@H](CS)C(=O)N[C@@H](C)C(=O)N[C@H](C(=O)N[C@H](C(=O)N[C@@H](CCCCN)C(=O)N[C@@H](CCCCN)C(=O)N[C@@H](CS)C(=O)O)[C@@H](C)O)C(C)C)[C@@H](C)CC [RaCa15] (H-FLPVVAGLAAKVLPSIICAVTKKC-OH; N-terminus and C-terminus assumed) | 8 to 16 | > 128 | 4 to 8 |  |  | 
4 | CC(C)C[C@H](NC(=O)CN)C(=O)N[C@@H](CC(C)C)C(=O)NCC(=O)N[C@@H](CCCCN)C(=O)N[C@H](C(=O)N[C@@H](CC(C)C)C(=O)NCC(=O)N[C@H](C(=O)NCC(=O)N[C@@H](CCCCN)C(=O)N[C@@H](CCCCN)C(=O)N[C@H](C(=O)N[C@@H](CC(C)C)C(=O)N[C@@H](CS)C(=O)NCC(=O)N[C@H](C(=O)N[C@@H](CO)C(=O)NCC(=O)N[C@@H](CCCNC(=N)N)C(=O)N[C@@H](CS)C(=O)O)C(C)C)C(C)C)C(C)C)C(C)C [RaOm4] (H-GLLGKVLGVGKKVLCGVSGRC-OH; N-terminus and C-terminus assumed) | 4 to 8 | 32 (≈ 15.7 µM) | 64 to 128 |  |  | 
5 | CC[C@H](C)[C@H](NC(=O)[C@H](CO)NC(=O)[C@@H]1CCCN1C(=O)[C@H](CC(C)C)NC(=O)[C@@H](NC(=O)[C@H](CCCCN)NC(=O)[C@H](C)NC(=O)[C@H](C)NC(=O)[C@H](CC(C)C)NC(=O)CNC(=O)[C@H](C)NC(=O)[C@@H](NC(=O)[C@@H](NC(=O)[C@@H]1CCCN1C(=O)[C@H](CC(C)C)NC(=O)[C@H](Cc1ccccc1)NC(=O)[C@H](CCCNC(=N)N)NC(=O)[C@H](CCC(N)=O)NC(=O)[C@H](CCC(=O)O)NC(=O)[C@@H](N)CCC(=O)O)C(C)C)C(C)C)C(C)C)C(=O)N[C@H](C(=O)N[C@@H](CS)C(=O)N[C@@H](C)C(=O)N[C@H](C(=O)N[C@H](C(=O)N[C@@H](CCCCN)C(=O)N[C@@H](CCCCN)C(=O)N[C@@H](CS)C(=O)O)[C@@H](C)O)C(C)C)[C@@H](C)CC [RaSy2] (H-EEQRFLPVVAGLAAKVLPSIICAVTKKC-OH; N-terminus and C-terminus assumed) | 64 (≈ 21.4 µM) | > 128 | 64 to 128 |  |  | 
6 | AFVRILCYCCPRRIKRR [TeRu2, rAMPage-discovered AMP, Temnothorax rugatulus] | 64 to 128 | > 128 | 128 |  |  | 
7 | AGLQFPVGRIHRHLKTR [PeNi6] | > 128 | > 128 | > 128 |  |  | 
8 | ATAWKVPPGLQPIRPIRIRPLCGNDKS [PeNi16] | > 128 | > 128 | > 128 |  |  | 
9 | AVLSFVHKLFLNFLHVDTSKGKCRATLQ [TeRu3] | > 128 | > 128 | > 128 |  |  | 
10 | DNKWQNVHFHRSAVTGPTSFSFSHK [AnFl1] |  |  |  | > 128 | > 128 | > 128
11 | FIKTQVLKHLVAGVRVARGLDWKWR [CaCa2] | 8 | > 128 | 64 to 128 |  |  | 
12 | FILHAKKTRSAK [VeSi1] | > 128 | > 128 | > 128 |  |  | 
13 | FLPSSPWNEGTYVLKKLKS [PeNi15] | > 128 | > 128 | > 128 |  |  | 
14 | FPFPFGRR [RaSi2] | > 128 | > 128 | > 128 |  |  | 
15 | GAFVLWGPTPRPRRR [DiLo1] | 128 | > 128 | > 128 |  |  | 
16 | GAHKEVFKRDTALTKEAAKKAKK [ApMe2] | > 128 | > 128 | > 128 |  |  | 
17 | GFMDTAKNVAKNVAVTLLDNLKCKITKAC [OdMa13, rAMPage-discovered AMP, Odorrana margaretae] | 64 to 128 | > 128 | > 128 |  |  | 
18 | GIFGGLLKEGKKIACGLSGLC [OdTo3, rAMPage-discovered AMP, Odorrana tormota] | 32 | > 128 | > 128 |  |  | 
19 | GIFSLIKGAAK [LeBo1] | > 128 | > 128 | > 128 |  |  | 
20 | GIFSLIKGAAKVVAKGLG [PeNi3, rAMPage-discovered AMP, Pelophylax nigromaculatus] | 16 to 32 | 64 to 128 | 64 to 128 |  |  | 
21 | GIFSLIKGAAKVVAKGLGK [RaOm3] | 8 to 16 | 32 to 64 | 64 |  |  | 
